Test results published in patent US8846951B2 (AbbVie Inc., priority 2009, dated 2014).
Read-outs that look alike come from different tables or passages of the source.

Experiments:
5HT2B receptors = target: T1, 5HT2B receptors (Homo sapiens, UniProt P41595); assay: Human 5-HT2B functional high throughput screening assay in CHO-K1 cells (calcium flux); type: cell-based; conditions: for EC50: CHO-K1 cells, calcium flux
T1 construct: expressed in transfected cells; host or cells: CHO-K1 cells
Outline: (§1)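 CHO-K1 cells overexpressing human 5-HT2C or 5-HT2B were serum-starved overnight and loaded with Ca4 dye plus 2.5 mM probenecid for 60 min at RT. Calcium flux was read on FLIPR (ex 480/em 530 nm, 25° C) over 3 min after addition of compound, tested from 10 μM in 1:10 steps over 6 points with 0.2% DMSO. EC50 and Emax relative to serotonin came from a 4-parameter logistic fit.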

[1] = target: T2, human serotonin 5-HT2c receptor (Homo sapiens, UniProt P28335); assay: Human 5-HT2C receptor radioligand binding assay (agonist site, [125I]DOI); conditions: 5-HT2c agonist site; transfected CHO cell membranes; 0.2 nM [125I](±)DOI
T2 construct: expressed in transfected cells; host or cells: CHO cells (membrane homogenates)
T2 sequence (P28335 33-458): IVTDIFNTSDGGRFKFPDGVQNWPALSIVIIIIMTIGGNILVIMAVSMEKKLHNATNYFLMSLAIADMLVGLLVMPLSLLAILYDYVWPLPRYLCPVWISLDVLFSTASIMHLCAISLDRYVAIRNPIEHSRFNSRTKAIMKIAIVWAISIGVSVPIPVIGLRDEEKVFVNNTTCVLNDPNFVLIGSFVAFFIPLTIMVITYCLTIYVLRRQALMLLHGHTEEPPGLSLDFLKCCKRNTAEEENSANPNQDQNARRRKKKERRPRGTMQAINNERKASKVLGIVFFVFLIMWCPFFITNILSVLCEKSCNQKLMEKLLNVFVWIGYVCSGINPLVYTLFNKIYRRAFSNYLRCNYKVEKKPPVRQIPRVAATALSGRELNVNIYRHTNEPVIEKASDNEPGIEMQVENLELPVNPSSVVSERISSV
Experimental: (i) Human 5-HT2C Receptor Radioligand Binding Assay
Affinity of compounds for the agonist site of the […], receptor in transfected CHO cells was determined in a radioligand binding assay essentially as described by Bryant, H. U., et al., Life Sciences (1996) 59(15), 1259-1268.

5HT2C receptors [2] = target: T3, 5HT2C receptors (Homo sapiens, UniProt P28335); assay: Human 5-HT2C functional high throughput screening assay in CHO-K1 cells (calcium flux); type: cell-based; design: expressed in transfected cells; host or cells: CHO-K1 cells; conditions: for EC50: CHO-K1 cells, calcium flux; for Emax: CHO-K1, 5-HT2C, maximum functional response as percentage relative to the effect of serotonin
T3 sequence (P28335 33-458): T2 sequence (P28335 33-458)
Outline: as §1

5HT2C receptors [3] = target: T3, 5HT2C receptors; assay: Human 5-HT2C functional assay in 1321N1 cells (intracellular calcium, FLIPR); type: cell-based; design: expressed in transfected cells; host or cells: 1321N1 cells; conditions: 5-HT2c agonist activity, maximum calcium response
Experimental: (ii) Human 5-HT2C Functional Assay in 1321N1 Cells
Functional activity was determined by testing the effect of the compounds on intracellular calcium levels in 1321N1 cells stably transfected with the human 5-HT2C receptor. Cells were seeded into 96-well plates at 50,000 cells/well and grown overnight in tissue culture medium (DMEM with Glutamax I (Invitrogen), containing 10% dFCS, 50 μg/mL Gentamicin, 400 μg/mL Geneticin) at 37° C. and 7% CO2. Growth medium was replaced by medium without dFCS for overnight incubation. Cells were loaded with a fluorescent calcium-sensitive dye in the presence of 1% probenicid according to the manufacturer's protocol (Fluo4 AM, Molecular Devices). Serial compound dilutions (final concentrations 10^−10 to 10^−5 M) were added to the cells either alone or in the presence of serotonin (10^−9 M) and the maximum calcium response was determined using a FLIPR instrument (Molecular Devices). Concentration-response curves were fitted using a four-parameter logistic equation (GraphPad Prism). The concentration at which the compound exerts half its maximal effect is named the ‘effective concentration 50’ or ‘EC50’ and is listed in Table 2.

[4] = 5-HT2B agonist activity, read-out: EC50
[5] = 5-HT2C agonist activity, read-out: EC50
[6] = 5-HT2B, maximum functional response as percentage relative to the effect of serotonin

T1 sequence (P41595 whole entry): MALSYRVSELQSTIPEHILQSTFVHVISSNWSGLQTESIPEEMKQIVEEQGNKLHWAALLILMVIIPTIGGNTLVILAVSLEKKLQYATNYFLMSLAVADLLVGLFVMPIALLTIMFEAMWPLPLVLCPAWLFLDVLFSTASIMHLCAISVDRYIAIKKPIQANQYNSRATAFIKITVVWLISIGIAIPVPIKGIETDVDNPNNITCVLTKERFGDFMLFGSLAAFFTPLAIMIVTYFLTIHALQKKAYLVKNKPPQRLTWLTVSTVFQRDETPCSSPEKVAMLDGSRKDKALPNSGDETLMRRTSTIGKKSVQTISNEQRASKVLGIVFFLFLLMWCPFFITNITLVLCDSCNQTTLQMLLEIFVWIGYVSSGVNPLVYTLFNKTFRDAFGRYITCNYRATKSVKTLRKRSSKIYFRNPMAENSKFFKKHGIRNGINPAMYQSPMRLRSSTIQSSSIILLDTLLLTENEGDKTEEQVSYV

**Q.** For `COc1cccc(CN2C[C@H]3CNC(=O)c4ccccc4[C@@H]3C2)c1` (relative stereo) [Example 28, Trans-2-(3-methoxybenzyl)-1,2,3,3a,4,5-hexahydrobenzo[c]pyrrolo[3,4-e]azepin-6(10bH)-one], which EC50 (5HT2B receptors; [4]) is on record?
**A.** 70 nM

**Q.** And the Emax (5HT2B receptors; CHO-K1, 5-HT2B, maximum functional response as percentage relative to the effect of serotonin, read-out: Emax)?
**A.** 55%

**Q.** What about the Ki [1] of the same compound?
**A.** 14 nM

**Q.** What about the EC50 (5HT2C receptors [2]; [5]) of the same compound?
**A.** 1 nM

**Q.** And the Emax (5HT2C receptors [2]; read-out: Emax)?
**A.** > 120%

**Q.** And the EC50 (5HT2C receptors [3])?
**A.** 3.95 nM

**Q.** What does the source list for `O=C1NC[C@@H]2CN(Cc3ccccc3)C[C@H]2c2ccc(F)cc21` (relative stereo) [Example 55, Trans-2-benzyl-8-fluoro-1,2,3,3a,4,5-hexahydrobenzo[e]pyrrolo[3,4-c]azepin-6(10bH)-one]?
**A.** Emax (5HT2B receptors; [6]): inactive; EC50 (5HT2B receptors; EC50, 5-HT2B agonist activity): > 10000 nM; Ki [1]: 9.1 nM; Emax (5HT2C receptors [2]): 120%; EC50 (5HT2C receptors [2]; EC50, 5-HT2C agonist activity): 40 nM; EC50 (5HT2C receptors [3]): 10.6 nM

**Q.** How did the Ki [1] turn out when `O=C1NC[C@@H]2CN(Cc3ccccc3)C[C@H]2c2cc(Cl)c(Cl)cc21` (relative stereo) [Example 56, Trans-2-benzyl-8,9-dichloro-1,2,3,3a,4,5-hexahydrobenzo[c]pyrrolo[3,4-e]azepin-6(10bH)-one] was run?
**A.** 70 nM

**Q.** What about the EC50 (5HT2C receptors [3]) of the same compound?
**A.** 15.3 nM

**Q.** Which results are given for `O=C1NC[C@@H]2CNC[C@H]2c2ccc(F)cc21` (relative stereo) [Example 57, Trans-8-fluoro-1,2,3,3a,4,5-hexahydrobenzo[c]pyrrolo[3,4-e]azepin-6(10bH)-one]?
**A.** Emax (5HT2B receptors; CHO-K1): 100%; EC50 (5HT2B receptors; EC50, 5-HT2B agonist activity): 700 nM; Ki [1]: 26 nM; Emax (5HT2C receptors [2]): 120%; EC50 (5HT2C receptors [2]; EC50, 5-HT2C agonist activity): 6 nM; EC50 (5HT2C receptors [3]): 7.67 nM

**Q.** With `O=C1NC[C@@H]2CN(Cc3ccccc3)C[C@H]2c2cccc(F)c21` (relative stereo) [Example 58, Trans-2-benzyl-7-fluoro-1,2,3,3a,4,5-hexahydrobenzo[e]pyrrolo[3,4-c]azepin-6(10bH)-one] as the compound, how does the EC50 (5HT2B receptors; [4]) read?
**A.** > 10000 nM

**Q.** And the Emax (5HT2B receptors; [6])?
**A.** inactive

**Q.** What about the Ki [1] of the same compound?
**A.** 31 nM

**Q.** And the EC50 (5HT2C receptors [2]; [5])?
**A.** 30 nM

**Q.** And the Emax (5HT2C receptors [2]; read-out: Emax)?
**A.** 110%

**Q.** What about the EC50 (5HT2C receptors [3]) of the same compound?
**A.** 29 nM

**Q.** `O=C1NC[C@@H]2CN(Cc3ccccc3)C[C@@H]2c2cccc(F)c21` (relative stereo) [Example 59, Cis-2-benzyl-7-fluoro-1,2,3,3a,4,5-hexahydrobenzo[c]pyrrolo[3,4-e]azepin-6(10bH)-one] was tested. Which EC50 (5HT2B receptors; [4]) did it give?
**A.** > 10000 nM

**Q.** And the Emax (5HT2B receptors; [6])?
**A.** inactive

**Q.** And the Ki [1]?
**A.** 210 nM

**Q.** What about the EC50 (5HT2C receptors [2]; [5]) of the same compound?
**A.** 100 nM

**Q.** And the Emax (5HT2C receptors [2]; read-out: Emax)?
**A.** 120%

**Q.** What about the EC50 (5HT2C receptors [3]) of the same compound?
**A.** 115 nM

**Q.** How did the EC50 (5HT2B receptors; [4]) turn out when `O=C1NC[C@@H]2CN(Cc3ccccc3)C[C@H]2c2c(F)cccc21` (relative stereo) [Example 65, Trans-2-benzyl-10-fluoro-1,2,3,3a,4,5-hexahydrobenzo[c]pyrrolo[3,4-e]azepin-6(10bH)-one] was run?
**A.** > 10000 nM

**Q.** And the Emax (5HT2B receptors; [6])?
**A.** inactive

**Q.** And the Ki [1]?
**A.** 53 nM

**Q.** What about the EC50 (5HT2C receptors [2]; [5]) of the same compound?
**A.** 20 nM

**Q.** And the Emax (5HT2C receptors [2]; read-out: Emax)?
**A.** 120%

**Q.** What about the EC50 (5HT2C receptors [3]) of the same compound?
**A.** 20.2 nM

**Q.** For `O=C1NC[C@@H]2CN(Cc3ccccc3)C[C@@H]2c2c(F)cccc21` (relative stereo) [Example 66, Cis-2-benzyl-10-fluoro-1,2,3,3a,4,5-hexahydrobenzo[c]pyrrolo[3,4-e]azepin-6(10bH)-one], which Ki [1] is on record?
**A.** 290 nM

**Q.** What about the EC50 (5HT2C receptors [3]) of the same compound?
**A.** 179 nM

**Q.** Which results are given for `COC(=O)c1cccc(CN2C[C@H]3CNC(=O)c4ccccc4[C@@H]3C2)c1` (relative stereo) [Example 68, Trans-methyl-3-((6-oxo-1,3a,4,5,6,10b-hexahydrobenzo[e]pyrrolo[3,4-c]azepin-2(3H)-yl)methyl)benzoate]?
**A.** EC50 (5HT2B receptors; [4]): > 10000 nM; Emax (5HT2B receptors; [6]): inactive; Ki [1]: 10 nM; EC50 (5HT2C receptors [2]; [5]): 7 nM; Emax (5HT2C receptors [2]; read-out: Emax): 120%; EC50 (5HT2C receptors [3]): 3.97 nM

**Q.** Which results are given for `CN1C[C@H]2CNC(=O)c3ccccc3[C@@H]2C1` (relative stereo) [Example 69, Trans-2-methyl-1,2,3,3a,4,5-hexahydrobenzo[c]pyrrolo[3,4-e]azepin-6(10bH)-one]?
**A.** Emax (5HT2B receptors; CHO-K1): 70%; EC50 (5HT2B receptors; EC50, 5-HT2B agonist activity): 500 nM; Ki [1]: 48 nM; Emax (5HT2C receptors [2]): 120%; EC50 (5HT2C receptors [2]; EC50, 5-HT2C agonist activity): 9 nM; EC50 (5HT2C receptors [3]): 8.78 nM

**Q.** Which Ki [1] does the source give for `O=C1NC[C@@H]2CN(Cc3cc(Cl)ccc3F)C[C@H]2c2ccccc21` (relative stereo) [Example 70, Trans-2-(5-chloro-2-fluorobenzyl)-1,2,3,3a,4,5-hexahydrobenzo[e]pyrrolo[3,4-c]azepin-6(10bH)-one] here?
**A.** 36 nM

**Q.** And the EC50 (5HT2C receptors [3])?
**A.** 1.76 nM
